Laboratory results from ChEMBL document CHEMBL1123834, “Isozyme-specific enzyme inhibitors. 14. 5'(R)-C-[(L-homocystein-S-yl)methyl]adenosine 5'-(beta,gamma-imidotriphosphate), a potent inhibitor of rat methionine adenosyltransferases” (J Med Chem, 1987).

What was measured:
Format in all cases: protein assay
[1] = molecular target: T1, S-adenosylmethionine synthetase (MAT 1 and MAT 2) (Rattus norvegicus, UniProt P13444+P18298); test: Inhibition constants of M-2 Forms of rat methionine adenosyltransferase using ATP as the variable substrate; Inhibition is competitive type
[2] = molecular target: T1, S-adenosylmethionine synthetase (MAT 1 and MAT 2); test: Inhibition constants of MT Forms of rat Novikoff Ascitic Hepatomae using ATP as the variable substrate; Inhibition is competitive type
[3] = molecular target: T1, S-adenosylmethionine synthetase (MAT 1 and MAT 2); test: Inhibition constants of MT Forms of rat Novikoff Ascitic Hepatomae using Methionine as the variable substrate; Inhibition is non competitive inhibition
[4] = molecular target: T1, S-adenosylmethionine synthetase (MAT 1 and MAT 2); test: Inhibition constants of M-2 Forms of rat methionine adenosyltransferase using Methionine as the variable substrate; Inhibition is competitive type
[5] = molecular target: T1, S-adenosylmethionine synthetase (MAT 1 and MAT 2); test: Inhibition constants of MT Forms of rat Novikoff Ascitic Hepatomae using Methionine as the variable substrate; Inhibition is non competitive type
[6] = molecular target: T1, S-adenosylmethionine synthetase (MAT 1 and MAT 2); test: Inhibition constants of M-2 Forms of rat methionine adenosyltransferase using Methionine as the variable substrate; Inhibition is non competitive type

Structure (SMILES) | Ki [1] [µM] | Ki [2] [µM] | Ki [3] [µM] | Ki [4] [µM] | Ki [5] [µM] | Ki [6] [µM]
NC(CCSC(CP(=O)(O)OP(=O)(O)NP(=O)(O)O)[C@H]1O[C@@H](n2cnc3c2NC=NC3N)[C@H](O)[C@@H]1O)C(=O)O (stereo partly drawn) | 16 | 11 | 38 | 26 | – | –
NC(CCS[C@@H](CNP(=O)(O)OP(=O)(O)OP(=O)(O)O)[C@H]1OC(n2cnc3c2NC=NC3N)[C@H](O)[C@@H]1O)C(=O)O (stereo partly drawn) | 0.36 | 0.27 | – | – | 2.3 | 3
